Reference: ChEMBL document CHEMBL3616418, “Discovery of Bivalent Kinase Inhibitors via Enzyme-Templated Fragment Elaboration” (ACS Med Chem Lett, 2015)

Experiments:
[1] = target: Tyrosine-protein kinase HCK (Homo sapiens, UniProt P08631); assay: Inhibition of Hck (unknown origin)
[2] = target: Tyrosine-protein kinase ABL1 (Homo sapiens, UniProt P00519); assay: Inhibition of c-Abl (unknown origin)
[3] = target: Proto-oncogene tyrosine-protein kinase Src (Homo sapiens, UniProt P12931, C277S/C483S); assay: Inhibition of c-Src C277S, C483S, […] mutant (unknown origin)

Ki [1]	Ki [2]	Ki [3]	Compound
> 1250 µM	> 1250 µM		C=CC(=O)N1CCCC1c1ccco1 (stereo not drawn)
		0.2 µM	O=C(CCS)Nc1cccc(Nc2nccc(Nc3cc(C4CC4)[nH]n3)n2)c1
